Results reported in US8470820B2, “Nitrogen-containing heteroaryl derivatives” (Hoffman-La Roche Inc., priority 2010, dated 2013).

Biological target: human PDE10A (Homo sapiens (Human), UniProt Q9Y233)
Experiment: human PDE10A full length Scintillation Proximity Assay (SPA)
Assay type: biochemical
Details: 50 nM cGMP and 50 nM [3H]-cGMP, 20 minutes at room temperature, read-out: PDE10A inhibition IC50
Protocol: The following test was carried out in order to determine the activity of the compounds of the present invention. PDE10 activity of the compounds of the present invention was determined using a Scintillation Proximity Assay (SPA)-based method similar to the one previously described (Fawcett, L. et al., Proc Natl Acad Sci USA (2000) 97(7):3702-3707).
The human PDE10A full length assay was performed in 96-well micro titer plates. The reaction mixture of 50 μl contained 20 mM HEPES pH=7.5/10 mM MgCl2/0.05 mg/ml BSA (Sigma cat. # A-7906), 50 nM cGMP (Sigma, cat. # G6129) and 50 nM [^3H]-cGMP (GE Healthcare, cat. # TRK392 S.A. 13.2Ci/mmol), 3.75 ng/well PDE10A enzyme (Enzo Life Science, Lausen, Switzerland cat # SE-534) with or without a specific test compound. A range of concentrations of the potential inhibitor was used to generate data for calculating the concentration of inhibitor resulting in 50% of the effect (e.g. IC50, the concentration of the competitor inhibiting PDE10A activity by 50%). Non-specific activity was tested without the enzyme. The reaction was initiated by the addition of the substrate solution (cGMP and [^3H]-cGMP) and allowed to progress for 20 minutes at room temperature. The reaction was terminated by adding 25 μA of YSi-SPA scintillation beads (GE Healthcare, cat. # RPNQ0150) in 18 mM zinc sulphate solution (stop reagent). After 1 h under shaking, the plate was centrifuged one minute at 170 g to allow beads to settle. Afterwards, radioactive counts were measured on a Perkin Elmer TopCount Scintillation plate reader.

Chain of human PDE10A (Q9Y233 other isoform, or with tags, fused parts or gaps): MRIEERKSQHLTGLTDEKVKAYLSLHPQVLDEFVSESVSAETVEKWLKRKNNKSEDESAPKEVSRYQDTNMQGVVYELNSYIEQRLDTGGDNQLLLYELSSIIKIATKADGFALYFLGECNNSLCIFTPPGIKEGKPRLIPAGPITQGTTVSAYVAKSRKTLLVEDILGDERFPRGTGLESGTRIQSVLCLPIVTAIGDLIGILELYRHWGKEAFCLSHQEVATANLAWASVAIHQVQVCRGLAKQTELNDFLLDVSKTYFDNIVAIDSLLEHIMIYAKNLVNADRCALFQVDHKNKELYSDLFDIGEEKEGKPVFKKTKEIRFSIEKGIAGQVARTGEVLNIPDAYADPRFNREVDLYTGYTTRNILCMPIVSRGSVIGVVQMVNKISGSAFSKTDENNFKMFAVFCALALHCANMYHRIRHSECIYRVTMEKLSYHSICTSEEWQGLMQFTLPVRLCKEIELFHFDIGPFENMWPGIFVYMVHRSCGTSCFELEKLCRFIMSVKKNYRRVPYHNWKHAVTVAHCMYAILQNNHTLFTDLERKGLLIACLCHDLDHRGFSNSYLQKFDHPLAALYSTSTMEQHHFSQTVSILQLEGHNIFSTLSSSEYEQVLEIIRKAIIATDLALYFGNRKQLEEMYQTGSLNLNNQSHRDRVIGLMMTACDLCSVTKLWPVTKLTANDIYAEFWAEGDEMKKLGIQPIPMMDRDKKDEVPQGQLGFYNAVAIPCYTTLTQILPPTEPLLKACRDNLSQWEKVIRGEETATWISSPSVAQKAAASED

Structure (SMILES) | IC50 [nM]
N#CCCn1nc(-c2ccccn2)cc1NC(=O)c1nc(C2CC2)ccc1Nc1cncnc1 [Example 33, 6-Cyclopropyl-3-(pyrimidin-5-ylamino)-pyridine-2-carboxylic acid [2-(2-cyano-ethyl)-5-pyridin-2-yl-2H-pyrazol-3-yl]-amide] | 170
Cc1cnc(Nc2cncnc2)c(C(=O)Nc2cc(-c3ccccn3)nn2C)n1 [Example 35, 6-Methyl-3-(pyrimidin-5-ylamino)-pyrazine-2-carboxylic acid (2-methyl-5-pyridin-2-yl-2H-pyrazol-3-yl)-amide] | 21
Cn1cncc1Cn1nc(-c2ccccn2)cc1NC(=O)c1nc(C2CC2)ccc1Nc1cncnc1 [Example 37, 6-Cyclopropyl-3-(pyrimidin-5-ylamino)-pyridine-2-carboxylic acid [2-(3-methyl-3H-imidazol-4-ylmethyl)-5-pyridin-2-yl-2H-pyrazol-3-yl]-amide] | 2
COCCn1nc(-c2ccccn2)cc1NC(=O)c1nc(C2CC2)ccc1Nc1cncnc1 [Example 38, 6-Cyclopropyl-3-(pyrimidin-5-ylamino)-pyridine-2-carboxylic acid [2-(2-methoxy-ethyl)-5-pyridin-2-yl-2H-pyrazol-3-yl]-amide] | < 1
Cn1nc(-c2ccc(Cl)cn2)cc1NC(=O)c1nc(C2CC2)ccc1Nc1cncnc1 [Example 39, 6-Cyclopropyl-3-(pyrimidin-5-ylamino)-pyridine-2-carboxylic acid [5-(5-chloro-pyridin-2-yl)-2-methyl-2H-pyrazol-3-yl]-amide] | 3
Cn1nc(-c2cccc(Cl)n2)cc1NC(=O)c1nc(C2CC2)ccc1Nc1cncnc1 [Example 41, 6-Cyclopropyl-3-(pyrimidin-5-ylamino)-pyridine-2-carboxylic acid [5-(6-chloro-pyridin-2-yl)-2-methyl-2H-pyrazol-3-yl]-amide] | 3
CN1CCC(n2nc(-c3ccccn3)cc2NC(=O)c2nc(C3CC3)ccc2Nc2cncnc2)CC1 [Example 43, 6-Cyclopropyl-3-(pyrimidin-5-ylamino)-pyridine-2-carboxylic acid [2-(1-methyl-piperidin-4-yl)-5-pyridin-2-yl-2H-pyrazol-3-yl]-amide] | 4
COc1ccc(-c2nnc(NC(=O)c3nc(C4CC4)ccc3Nc3cncnc3)s2)cc1 [Example 44, 6-Cyclopropyl-3-(pyrimidin-5-ylamino)-pyridine-2-carboxylic acid [5-(4-methoxy-phenyl)-[1,3,4]thiadiazol-2-yl]-amide] | 1880

Continued, values first:

IC50 [nM] | Structure (SMILES)
1 | CCc1ccc(Nc2cncnc2)c(C(=O)Nc2cc(-c3ccccn3)nn2CCO)n1 [Example 34, 6-Ethyl-3-(pyrimidin-5-ylamino)-pyridine-2-carboxylic acid [2-(2-hydroxy-ethyl)-5-pyridin-2-yl-2H-pyrazol-3-yl]-amide]
4 | Cc1cnc(Nc2cncnc2)c(C(=O)Nc2cc(-c3ccccn3)nn2CCO)n1 [Example 36, 6-Methyl-3-(pyrimidin-5-ylamino)-pyrazine-2-carboxylic acid [2-(2-hydroxy-ethyl)-5-pyridin-2-yl-2H-pyrazol-3-yl]-amide]
< 1 | Cn1nc(-c2ccc3ccccc3n2)cc1NC(=O)c1nc(C2CC2)ccc1Nc1cncnc1 [Example 40, 6-Cyclopropyl-3-(pyrimidin-5-ylamino)-pyridine-2-carboxylic acid (2-methyl-5-quinolin-2-yl-2H-pyrazol-3-yl)-amide]
24 | CN(C)CCn1nc(NC(=O)c2nc(C3CC3)ccc2Nc2cncnc2)cc1-c1ccccn1 [Example 42, 6-Cyclopropyl-3-(pyrimidin-5-ylamino)-pyridine-2-carboxylic acid [1-(2-dimethylamino-ethyl)-5-pyridin-2-yl-1H-pyrazol-3-yl]-amide]
6380 | O=C(Nc1nnc(-c2ccc(F)cc2)s1)c1nc(C2CC2)ccc1Nc1cncnc1 [Example 45, 6-Cyclopropyl-3-(pyrimidin-5-ylamino)-pyridine-2-carboxylic acid [5-(4-fluoro-phenyl)-[1,3,4]thiadiazol-2-yl]-amide]
